Test results from ChEMBL document CHEMBL3272307, “Imidazo(1,2-c)pyrimidine nucleosides. Synthesis and biological evaluation of certain 1-(beta-D-arabinofuranosyl)imidazo(1,2-c)pyrimidines” (1976).
Converted amounts (≈) assume the structure as drawn. The source made the active and inactive calls. The rule behind the calls is not given here.

Tests used:
KB = test: Antiviral activity against Rhinovirus type 13 infected in human KB cells assessed as inhibition of virus-induced cytopathic effect at 1 to 1000 ug/ml after 72 hrs; assay type: functional, cell-based; conditions: Human rhinovirus A13
Human alphaherpesvirus 1 = test: Antiviral activity against Herpes simplex virus 1 infected in human KB cells assessed as inhibition of virus induced cytopathic effects at 1 to 1000 ug/ml after 72 hrs; assay type: functional, organism-based
Proteus mirabilis = test: Antimicrobial activity against Proteus mirabilis clinical isolate at 0.005 to 0.4 umol/ml after 24 hrs by broth dilution assay; assay type: functional, organism-based
Candida albicans = test: Antimicrobial activity against Candida albicans clinical isolate at 0.005 to 0.4 umol/ml after 24 hrs by broth dilution assay; assay type: functional, organism-based
[1] = tested on: Trichophyton mentagrophytes; test: Antimicrobial activity against Trichophyton mentagrophytes clinical isolate after 48 hrs by broth dilution assay; assay type: functional
Human respirovirus 3 = test: Antiviral activity against Parainfluenza virus type 3 infected in human KB cells assessed as inhibition of virus-induced cytopathic effect at 1 to 1000 ug/ml after 72 hrs; assay type: functional, organism-based
Escherichia coli = test: Antimicrobial activity against Escherichia coli clinical isolate at 0.005 to 0.4 umol/ml after 24 hrs by broth dilution assay; assay type: functional, organism-based
Klebsiella pneumoniae = test: Antimicrobial activity against Klebsiella pneumoniae clinical isolate at 0.005 to 0.4 umol/ml after 24 hrs by broth dilution assay; assay type: functional, organism-based
Staphylococcus aureus [2] = test: Antimicrobial activity against Staphylococcus aureus clinical isolate after 24 hrs by broth dilution assay; assay type: functional
[3] = tested on: Trichophyton mentagrophytes; test: Antimicrobial activity against Trichophyton mentagrophytes clinical isolate at 0.005 to 0.4 umol/ml after 48 hrs by broth dilution assay; assay type: functional, organism-based
Staphylococcus aureus [4] = test: Antimicrobial activity against Staphylococcus aureus clinical isolate at 0.005 to 0.4 umol/ml after 24 hrs by broth dilution assay; assay type: functional, organism-based

MIC [1]	MIC (Staphylococcus aureus [2])	Structure (SMILES)	Activity (KB)	Activity (Human alphaherpesvirus 1)	Activity (Proteus mirabilis)	Activity (Candida albicans)	Activity (Human respirovirus 3)	Activity (Escherichia coli)	Activity (Klebsiella pneumoniae)	Activity [3]	Activity (Staphylococcus aureus [4])
40 µM (≈ 22.1 µg/mL)	160 µM (≈ 88.4 µg/mL)	Nc1cc2n([C@@H]3O[C@H](COCc4ccccc4)[C@@H](OCc4ccccc4)[C@@H]3OCc3ccccc3)ccn2c(=O)n1	Active	inactive	inactive	inactive	inactive	inactive	inactive	–	–
–	–	O=c1nc(Cl)cc2n([C@@H]3O[C@H](COCc4ccccc4)[C@@H](OCc4ccccc4)[C@@H]3OCc3ccccc3)ccn12	inactive	inactive	inactive	inactive	inactive	inactive	inactive	inactive	inactive
–	–	Cl[C@H]1O[C@H](COCc2ccccc2)[C@@H](OCc2ccccc2)[C@@H]1OCc1ccccc1	inactive	inactive	inactive	inactive	inactive	inactive	inactive	inactive	inactive
–	–	Nc1cc2n([C@@H]3O[C@H](CO)[C@@H](O)[C@@H]3O)ccn2c(=O)n1	inactive	inactive	inactive	inactive	inactive	inactive	inactive	inactive	inactive
–	–	C[Si](C)(C)Oc1nc(Cl)cc2nccn12	inactive	inactive	inactive	inactive	inactive	inactive	inactive	inactive	inactive
–	–	O=c1nccc2n([C@@H](CO)OC(CO)CO)ccn12	inactive	inactive	inactive	inactive	inactive	inactive	inactive	inactive	inactive
40 µM (≈ 21.5 µg/mL)	160 µM (≈ 86 µg/mL)	O=c1nccc2n([C@@H]3O[C@H](COCc4ccccc4)[C@@H](OCc4ccccc4)[C@@H]3OCc3ccccc3)ccn12	Active	inactive	inactive	inactive	inactive	inactive	inactive	–	–
–	–	O=c1nccc2n([C@@H]3O[C@H](CO)[C@@H](O)[C@@H]3O)ccn12	inactive	inactive	inactive	inactive	inactive	inactive	inactive	inactive	inactive
